Legend:
[1] = tested on: dermal wounds of CD-1 mice; test: CD-1 mouse excision wound healing assay; assay type: in vivo; settings: topical once daily, 10 μg/mouse, CT50 ± SE
Protocol: The LNO extract of Example 1 was further used in two in vivo models to assess wound healing and regeneration. […] In this experiment, a 12 mm skin punch was used to create a wound in mice and the mice were then divided into three groups, i.e., a negative control group, an experimental group and a positive control group. Immediately following wounding, the wounds were treated for ten days with either vehicle (0.5% carboxymethylcellulose in PBS), lucuma nut oil (LNO) (200 μg/mouse) in vehicle, or the positive control CGS-21680 (CAS120225-54-9, a specific adenosine A2A receptor agonist offered commercially by Tocris; see U.S. Pat. No. 4,968,697), also in vehicle. […] Wound healing assays were performed by MDS Pharma Services, Taiwan, MDSPS Testing Code 1115924, according to the protocol describe elsewhere (Kapoor, et al., J. Clin. Invest., 118:3279-3290 (2008); Montesinos, et al., J. Exp. Med., 186:1615-1620 (1997), each description incorporated herein by reference). Briefly, groups of 5 male CD-1 mice weighing 22±2 g were used for this assay. […] The wounded area was traced onto clear plastic sheets on days 3, 5, 7, 9 and 11 and quantitated by using an Image Analyzer (Life Science Resources VISTA, Version 30). […]

[2] = tested on: Human neonatal fibroblasts; test: scratched fibroblast assay (wound closure of monolayer); assay type: cell-based; settings: equivalent concentrations of pure FAs (LA 24 μg/mL, OA 18 μg/mL), 24 hours
Protocol: Human neonatal fibroblasts were maintained in Dulbecco's Modified Eagle Medium (D-MEM)+10% fetal bovine serum (FBS) and were kept in a humidified 37° C. incubator with 5% CO2. Cells were plated at a density of 1×10^4 cells per well in a 24-well plate and incubated for 24 hours, or until 100% confluency was reached. Each monolayer was wounded by dragging a pipette tip across the bottom of the well, using a straight edge as a guide (approximately 1.3 mm in width). The media was removed and cells were washed with 500 μL PBS twice to remove detached cells or cell debris. The cells were treated as follows: DMEM+10% FBS+vehicle (0.06% glycerol, positive control), DMEM+vehicle (0.06% glycerol, negative control), DMEM+vehicle (0.06% glycerol)+LNO (60 μg/mL), DMEM+vehicle (0.06% glycerol)+LA (24 μg/mL) and DMEM+vehicle (0.06% glycerol)+OA (18 μg/mL). Photos were taken of each well to measure the initial area of the wound. After 24 hours incubation, wells were photographed again. The scratched area was measured using […] Photoshop CS software, and percentage of wound closure at each time point was derived by the following formula: (1−[current wound size/initial wound size])×100.

[3] = tested on: transgenic zebrafish larvae tail fin (GFP-positive endothelial cells); test: zebrafish larvae tailfin primordia amputation regeneration / angiogenesis assay; assay type: in vivo; settings: 48 hours after amputation
Source text: A tailfin model of in vivo wound healing and regeneration was also used to assess the ability of a lucuma nut oil extract to promote appropriate wound healing, and the results of these assays also provided information on the angiogenic properties of LNO. In this transgenic model, the fli1 promoter drives expression of green fluorescent protein (GFP) in all the vascular endothelial cells, which allows tracking of wound healing in real time by direct observation of angiogenesis. Forty-eight-hour-old or five-day-old zebrafish larvae (AB strain) were anesthetized in 0.04% 3-amino benzoic acid ethylester (tricaine; MS-222) and placed in 2% agar Petri dishes. Surgical blades were used to amputate tailfin primordia just posterior to the notochord. Larvae were placed in 24-well plates containing either water (control), CGS-21680 (50 μg/mL; CAS120225-54-9) or LNO (10-100 μg/mL in water) and incubated at 28° C. Primordia re-growth was measured using fluorescence microscopy and image analysis of fluorescent endothelial cells. For this assay, the fin fluorescent area was normalized against the total fin area. […] The effects of LNO were analyzed and compared to the positive control CGS-21680 (2-p-(2-Carboxyethyl)phenethylamino-5′-N-ethylcarboxamidoadenosine). […]

Compound: CCNC(=O)[C@H]1O[C@@H](n2cnc3c(N)nc(NCCc4ccc(CCC(=O)O)cc4)nc32)[C@H](O)[C@@H]1O [CGS, 2-p-(2-Carboxyethyl)phenethylamino-5′-N-ethylcarboxamidoadenosine]
- Dermal wound closure expressed as half-closure time (CT50) [1]: 6.04 ± 0.2 days

Compound: CCCCC/C=C\C/C=C\CCCCCCCC(=O)O [LA, linoleic acid]
- cell migration in scratched fibroblasts compared with LNO 60 μg/mL [2]: not able to reproduce the effect of LNO in cell migration
- GFP-positive endothelial cells in regenerating tail fin (angiogenesis) [3]: not found

Compound: CCCCCCCC/C=C\CCCCCCCC(=O)O [OA, oleic acid]
- cell migration in scratched fibroblasts compared with LNO 60 μg/mL [2]: not able to reproduce the effect of LNO in cell migration
- GFP-positive endothelial cells in regenerating tail fin (angiogenesis) [3]: not found

From patent US20110318403A1, “Preparation and Use of Pouteria Lucuma Extract” (priority 2008, published 2011)
